Data: patent publication EP2966079B1, “PYRIDOPYRIMIDINE OR PYRIMIDOPYRIMIDINE COMPOUND, PREPARATION METHOD, PHARMACEUTICAL COMPOSITION AND USE THEREOF” (Shanghai Institute of Materia Medica, Chinese Academy of …, priority 2013, dated 2014)
pIC50: −log10 of the molar value.

Assays:
mTOR = mTOR (Homo sapiens, UniProt P42345); experiment: mTOR Kinase test (LANCE Ultra, ULight-4EBP1 substrate); format: biochemical; details: 1.7 nM mTOR, 50 nM ULight-4EBP1, 100 µM ATP, 1.5 hours reaction
human brain glioma U87MG = experiment: Cell proliferation assay (MTS method), U87MG; format: cell-based; details: U-87 MG, 72 h, U87MG cells, cultured with compound for 3 days
Method: (§1) Cell proliferation assay was based on two types of cell lines, i.e., human brain glioma U87MG and human prostate cancer LNCap, both of which were from ATCC. U87MG and LNCap contain PTEN gene deletion, and belongs to mTOR signal-dependent tumor cells. Cell culture media and related reagents were from GIBCO. U87MG cells were cultured in a MEM complete medium (containing 10% fetal bovine serum, 100 U/mL penicillin and 100 µg/mL streptomycin). […] Cells/compound was cultured for 3 days, and MTS method was used to test cell proliferation. MTS and PMS were purchased from Sigma company, a stock solution of MTS/PMS (20:1) was added into the test cells with 20 µL/well. After a suitable time of incubation, the proliferation assay results was recorded on a 96 well plate microplate reader. Relative cell viability% = (A490valueofadministeredgroup−lightvalueoftheblankgroup)/(lightvalueofDMSOgroup−lightvalueofblankgroup) × 100%. [formula]
(§2) The experimental data were processed with Microsoft Office Excel and Graphpad PRISM 5 to calculate IC50.

[1] = test system: human prostate cancer LNCap; experiment: Cell proliferation assay (MTS method), LNCap; format: cell-based; details: 72 h, LNCap cells, cultured with compound for 3 days
Method: as §1, §2

mTOR, sequence (P42345 1362-2549): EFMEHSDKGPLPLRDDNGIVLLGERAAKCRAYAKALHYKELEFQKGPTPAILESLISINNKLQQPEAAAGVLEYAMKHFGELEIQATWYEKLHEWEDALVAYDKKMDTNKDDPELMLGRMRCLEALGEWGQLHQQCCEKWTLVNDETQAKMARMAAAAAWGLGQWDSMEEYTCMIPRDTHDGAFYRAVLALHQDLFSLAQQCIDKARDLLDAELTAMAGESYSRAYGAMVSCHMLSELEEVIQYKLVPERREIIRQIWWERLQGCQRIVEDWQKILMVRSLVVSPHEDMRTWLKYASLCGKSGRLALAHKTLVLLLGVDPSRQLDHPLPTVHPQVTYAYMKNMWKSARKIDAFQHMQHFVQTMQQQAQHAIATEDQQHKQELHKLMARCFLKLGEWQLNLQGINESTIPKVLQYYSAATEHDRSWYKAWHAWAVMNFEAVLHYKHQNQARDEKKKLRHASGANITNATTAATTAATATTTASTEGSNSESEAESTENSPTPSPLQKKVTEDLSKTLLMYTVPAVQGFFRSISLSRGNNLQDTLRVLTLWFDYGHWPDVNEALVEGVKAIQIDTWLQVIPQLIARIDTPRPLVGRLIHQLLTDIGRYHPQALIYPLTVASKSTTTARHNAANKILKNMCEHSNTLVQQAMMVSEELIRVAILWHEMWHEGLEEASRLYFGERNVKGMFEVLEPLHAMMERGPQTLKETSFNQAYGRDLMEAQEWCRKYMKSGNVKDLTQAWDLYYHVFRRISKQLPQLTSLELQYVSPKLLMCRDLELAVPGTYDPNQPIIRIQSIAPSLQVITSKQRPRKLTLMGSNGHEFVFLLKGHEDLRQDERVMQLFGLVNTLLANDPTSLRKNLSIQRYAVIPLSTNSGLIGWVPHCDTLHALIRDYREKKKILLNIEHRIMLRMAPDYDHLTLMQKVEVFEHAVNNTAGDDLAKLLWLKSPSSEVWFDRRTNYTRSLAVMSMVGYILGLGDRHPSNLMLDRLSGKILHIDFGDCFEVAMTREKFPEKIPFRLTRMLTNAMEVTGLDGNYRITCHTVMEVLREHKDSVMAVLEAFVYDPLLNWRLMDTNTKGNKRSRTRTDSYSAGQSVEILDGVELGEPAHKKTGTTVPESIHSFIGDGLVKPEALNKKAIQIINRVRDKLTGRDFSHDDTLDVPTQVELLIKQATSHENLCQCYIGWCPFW

pIC50 (mTOR): < 4.70 | pIC50 (human brain glioma U87MG): < 4.22 | pIC50 [1]: 4.67
Compound: COc1ccc(-c2cc3nc(N4C[C@@H](C)O[C@@H](C)C4)nc(N4C[C@@H](C)O[C@@H](C)C4)c3cn2)cc1CO [Compound 17, (5-(2,4-di((2S,6R)-2,6-dimethyl)pyrido[4,3-d]pyrimidin-7-yl)-2-methoxyphenyl)methanol]
